“Also recorded” adds a separate entry of the source. Like-named read-outs stand apart in the source and are kept apart here.
Experiments:
Format in all cases: cell-based
NR2F6 = target: T1, NR2F6 (Homo sapiens, UniProt P10588); assay: NR2F6 agonist screening, Firefly signal cmpd/DMSO; conditions: for activity (in words): screening result
T1 construct: expressed in transfected cells; also transient transfection
T1 sequence (P10588 1-404): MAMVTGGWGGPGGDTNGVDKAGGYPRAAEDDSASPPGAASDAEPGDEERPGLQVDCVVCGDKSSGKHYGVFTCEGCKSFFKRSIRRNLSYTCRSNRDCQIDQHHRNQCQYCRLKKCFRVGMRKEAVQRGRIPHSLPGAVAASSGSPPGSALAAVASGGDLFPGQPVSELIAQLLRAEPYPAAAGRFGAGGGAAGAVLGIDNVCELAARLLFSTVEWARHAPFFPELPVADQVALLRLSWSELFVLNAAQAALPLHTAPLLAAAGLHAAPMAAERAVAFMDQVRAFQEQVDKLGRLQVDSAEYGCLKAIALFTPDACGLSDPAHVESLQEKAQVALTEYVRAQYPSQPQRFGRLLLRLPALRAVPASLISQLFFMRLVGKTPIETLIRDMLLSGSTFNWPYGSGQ

ERα [1] = target: T2, ERα (Homo sapiens, UniProt P03372); assay: Counterscreening, Firefly signal with ERα transient transfection (Firefly_ERa); conditions: for Firefly ERalpha transient, cmpd/DMSO (mean): 10 uM; for Firefly_ERa, cmpd/DMSO repeat 1 / Firefly_ERa, cmpd/DMSO repeat 2: ERα transient transfection, 10 μM
T2 construct: expressed in transfected cells
T2 sequence (P03372 1-595): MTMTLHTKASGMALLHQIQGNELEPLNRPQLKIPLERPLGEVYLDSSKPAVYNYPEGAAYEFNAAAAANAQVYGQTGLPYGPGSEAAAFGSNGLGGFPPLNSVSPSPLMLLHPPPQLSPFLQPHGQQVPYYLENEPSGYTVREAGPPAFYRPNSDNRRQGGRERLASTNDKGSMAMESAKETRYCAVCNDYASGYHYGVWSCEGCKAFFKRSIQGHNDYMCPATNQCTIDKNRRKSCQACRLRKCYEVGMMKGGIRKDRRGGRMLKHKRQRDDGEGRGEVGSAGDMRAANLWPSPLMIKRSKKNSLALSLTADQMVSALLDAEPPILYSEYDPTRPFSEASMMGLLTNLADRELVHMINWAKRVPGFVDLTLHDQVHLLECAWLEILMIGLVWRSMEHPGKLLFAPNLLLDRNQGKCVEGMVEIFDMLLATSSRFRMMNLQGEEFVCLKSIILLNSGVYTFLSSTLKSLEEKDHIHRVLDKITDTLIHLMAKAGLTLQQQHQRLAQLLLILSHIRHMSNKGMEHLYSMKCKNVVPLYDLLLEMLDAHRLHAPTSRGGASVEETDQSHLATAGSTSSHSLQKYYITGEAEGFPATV
Procedure: The methodology for screening candidate compounds as NR2F6 agonists was as follows: For primary screening, hit criteria was ACT %>DMSO control+5*SD (DSO control) at 10 μM, or any compound with S/B>2. For rescreening, hit criteria was ACT %>DMSO control+3*SD (DSO control) in each replicate at 10 μM. For counterscreening, hit criteria was mean ACT<DMSO control+3*SD (DMSO control) with ERα transient transfection in duplicate at 10 μM.

Renilla = Renilla signal in NR2F6 agonist screening, cmpd/DMSO; conditions: Renilla
Renilla_ERa = assay: Renilla signal in ERα counterscreen (Renilla_ERa)
ERα [2] = target: T2, ERα; assay: Counterscreening, Firefly signal with ERα transient transfection (Firefly_ERa)
HEK293 pGL4 = assay: Firefly_pGL signal, cmpd/DMSO (pGL4 control cells); conditions: Homo sapiens, HEK293, Table 14, read-out: Firefly pGL4, cmpd/DMSO (mean)
[3] = clone F4, read-out: Renilla F4, cmpd/DMSO (mean)
[4] = 10 uM, clone F4, read-out: Renilla F4, cmpd/DMSO (mean)
[5] = read-out: Renilla ERalpha transient, cmpd/DMSO (mean)
[6] = 10 uM, read-out: Renilla ERalpha transient, cmpd/DMSO (mean)
[7] = Table 14, read-out: Renilla F4, cmpd/DMSO (mean)
[8] = Table 14, 10 uM, read-out: Renilla F4, cmpd/DMSO (mean)
[9] = first set screening, 10 μM, repeat 1, read-out: Renilla, cmpd/DMSO repeat 1
[10] = first set screening, 10 μM, repeat 2, read-out: Renilla, cmpd/DMSO repeat 2
[11] = ERα transient transfection, 10 μM, repeat 1, read-out: Renilla_ERa, cmpd/DMSO repeat 1
[12] = ERα transient transfection, 10 μM, repeat 2, read-out: Renilla_ERa, cmpd/DMSO repeat 2
[13] = C11 analogs follow set (Tables 2-10)

Structure (SMILES)	Firefly F4, cmpd/DMSO (mean) (NR2F6; Table 14, 2 uM)	Firefly F4, cmpd/DMSO (mean) (NR2F6; Table 14, 10 uM)	Firefly F4, cmpd/DMSO (mean) (NR2F6; Table 14, 40 uM)	Firefly, cmpd/DMSO repeat 1 (NR2F6; first set screening, 10 μM)	Firefly, cmpd/DMSO repeat 2 (NR2F6; first set screening, 10 μM)	Firefly_ERa, cmpd/DMSO repeat 1 (ERα [1])	Firefly_ERa, cmpd/DMSO repeat 2 (ERα [1])	Firefly F4, cmpd/DMSO (mean) (NR2F6; Table 15, 2 uM)	Firefly F4, cmpd/DMSO (mean) (NR2F6; Table 15, 10 uM)	Firefly F4, cmpd/DMSO (mean) (NR2F6; Table 15, 40 uM)	Firefly ERalpha transient, cmpd/DMSO (mean) (ERα [1]; Table 15)	Firefly ERalpha transient, cmpd/DMSO (mean) (ERα [2]; Table 15, 2 uM)	Firefly ERalpha transient, cmpd/DMSO (mean) (ERα [2]; Table 15, 40 uM)	fold induction at 2 µM (Renilla; [7])	fold induction at 10 µM (Renilla; [8])	fold induction at 40 µM (Renilla; [7])	fold induction at 10 µM (Renilla; [9])	fold induction at 10 µM (Renilla; [10])	fold induction at 10 µM (Renilla_ERa; [11])	fold induction at 10 µM (Renilla_ERa; [12])	further results
O=c1cccc2n1CC1CC2CN(c2nc(N3CCCC3)nc(N3CCCC3)n2)C1 (stereo not drawn) [Compound 26]	–	–	–	–	–	–	–	–	–	–	–	–	–	–	–	–	–	–	–	–	Firefly F4, cmpd/DMSO (mean) (NR2F6; 2 uM, clone F4): 1.0; Firefly F4, cmpd/DMSO (mean) (NR2F6; 10 uM, clone F4): 1.1; Firefly F4, cmpd/DMSO (mean) (NR2F6; 40 uM, clone F4): 1.3; Firefly ERalpha transient, cmpd/DMSO (mean) (ERα [1]): 1.3; fold induction at 2 µM (Renilla; [3]): 1; fold induction at 10 µM (Renilla; [4]): 0.7; fold induction at 40 µM (Renilla; [3]): 0.7; fold induction at 2 µM (Renilla_ERa; [5]): 0.9; fold induction at 10 µM (Renilla_ERa; [6]): 1; fold induction at 40 µM (Renilla_ERa; [5]): 1; Firefly ERalpha transient, cmpd/DMSO (mean) (ERα [2]; 2 uM): 1.0; Firefly ERalpha transient, cmpd/DMSO (mean) (ERα [2]; 40 uM): 1.1
O=c1cccc2n1CC1CC2CN(c2nc(Cl)nc(NCCN3CCOCC3)n2)C1 (stereo not drawn) [Compound 27]	–	–	–	–	–	–	–	–	–	–	–	–	–	–	–	–	–	–	–	–	Firefly F4, cmpd/DMSO (mean) (NR2F6; 2 uM, clone F4): 1.0; Firefly F4, cmpd/DMSO (mean) (NR2F6; 10 uM, clone F4): 1.0; Firefly F4, cmpd/DMSO (mean) (NR2F6; 40 uM, clone F4): 1.0; Firefly ERalpha transient, cmpd/DMSO (mean) (ERα [1]): 1.2; fold induction at 2 µM (Renilla; [3]): 0.9; fold induction at 10 µM (Renilla; [4]): 0.9; fold induction at 40 µM (Renilla; [3]): 0.8; fold induction at 2 µM (Renilla_ERa; [5]): 1.1; fold induction at 10 µM (Renilla_ERa; [6]): 1.1; fold induction at 40 µM (Renilla_ERa; [5]): 1.2; Firefly ERalpha transient, cmpd/DMSO (mean) (ERα [2]; 2 uM): 1.2; Firefly ERalpha transient, cmpd/DMSO (mean) (ERα [2]; 40 uM): 1.2
O=C(Nc1cccc(O)c1)c1cc(-c2ccc(Cl)c(Cl)c2)on1 [Compound C5]	0.9	0.8	0.8	2.2	1.7	1.6	2.0	–	–	–	–	–	–	0.7	0.5	1.1	1.3	1.4	1.2	1	fold induction at 2 µM (HEK293 pGL4): 1.3; fold induction at 10 µM (HEK293 pGL4): 1.2; fold induction at 40 µM (HEK293 pGL4): 1
CCc1cc(C(=O)Nc2ccn(Cc3ccc(C)cc3)n2)no1 [Compound C6]	1.4	0.6	0.4	2.6	1.9	2.2	1.4	–	–	–	–	–	–	0.7	0.6	0.5	1.2	0.9	1	1	fold induction at 2 µM (HEK293 pGL4): 1.3; fold induction at 10 µM (HEK293 pGL4): 1.3; fold induction at 40 µM (HEK293 pGL4): 1
CCc1cccc(Nc2cnn(-c3nc4ccccc4s3)c(=O)c2Cl)c1 [Compound C7]	0.6	0.5	0.4	2.1	2.1	0.8	0.5	–	–	–	–	–	–	1	0.3	0.4	1.1	1.4	0.8	0.8	activity (in words) (NR2F6): particularly good activity; fold induction at 2 µM (HEK293 pGL4): 0.9; fold induction at 10 µM (HEK293 pGL4): 0.8; fold induction at 40 µM (HEK293 pGL4): 0.8
COC(=O)c1ccc2oc(=O)c(S(=O)(=O)c3ccccc3)cc2c1 [Compound C11]	1.7	1.6	0.4	13.5	12.6	1.7	1.7	–	–	–	–	–	–	1.1	1.2	0.2	3.8	3.3	1.3	1.2	Firefly, cmpd/DMSO repeat 1 (NR2F6; [13]): 24.6; Firefly, cmpd/DMSO repeat 2 (NR2F6; [13]): 21.3; Firefly/Renilla (NR2F6 stable, clone F4) (NR2F6; Table 12, ratio Firefly/Renilla, NR2F6 stable clone F4): 1.8; Firefly, NR2F6 stable (clone F4)/pGL4 (NR2F6; Table 12, ratio of Firefly in NR2F6 stable clone F4 to pGL4): 7.0; Firefly, cmpd/DMSO repeat 1 (NR2F6; Table 12): 24.6; Firefly, cmpd/DMSO repeat 2 (NR2F6; Table 12): 21.3; activity (in words) (NR2F6): particularly good activity; also recorded: particularly promising; fold induction at 2 µM (HEK293 pGL4): 1.1; fold induction at 10 µM (HEK293 pGL4): 1.7; fold induction at 40 µM (HEK293 pGL4): 0.8
CCOC(=O)c1cnc2c(C)cc(C)cc2c1NCCCN1CCCCC1 [Compound Z8]	–	–	–	–	–	–	–	2.6	4.0	0.7	2.4	2.2	0.4	–	–	–	–	–	–	–	fold induction at 2 µM (Renilla_ERa; Table 15, read-out: Renilla ERalpha transient, cmpd/DMSO (mean)): 1.4; fold induction at 10 µM (Renilla_ERa; Table 15, 10 uM, read-out: Renilla ERalpha transient, cmpd/DMSO (mean)): 1.4
CCOC(=O)c1cnc2c(C)cc(C)cc2c1NCCCN1CCCCC1 [Compound Z9]	–	–	–	–	–	–	–	2.5	6.7	1.2	2.7	2.2	0.5	–	–	–	–	–	–	–	–

Further lines, with some results ahead:

Firefly F4, cmpd/DMSO (mean) (NR2F6; Table 14, 2 uM)	Firefly F4, cmpd/DMSO (mean) (NR2F6; Table 14, 10 uM)	Firefly F4, cmpd/DMSO (mean) (NR2F6; Table 14, 40 uM)	Firefly, cmpd/DMSO repeat 1 (NR2F6; first set screening, 10 μM)	Firefly, cmpd/DMSO repeat 2 (NR2F6; first set screening, 10 μM)	Firefly_ERa, cmpd/DMSO repeat 1 (ERα [1])	Firefly_ERa, cmpd/DMSO repeat 2 (ERα [1])	Firefly F4, cmpd/DMSO (mean) (NR2F6; Table 15, 2 uM)	Firefly F4, cmpd/DMSO (mean) (NR2F6; Table 15, 10 uM)	Firefly F4, cmpd/DMSO (mean) (NR2F6; Table 15, 40 uM)	Firefly ERalpha transient, cmpd/DMSO (mean) (ERα [1]; Table 15)	Firefly ERalpha transient, cmpd/DMSO (mean) (ERα [2]; Table 15, 2 uM)	Firefly ERalpha transient, cmpd/DMSO (mean) (ERα [2]; Table 15, 40 uM)	Structure (SMILES)	fold induction at 2 µM (Renilla; [7])	fold induction at 10 µM (Renilla; [8])	fold induction at 40 µM (Renilla; [7])	fold induction at 10 µM (Renilla; [9])	fold induction at 10 µM (Renilla; [10])	fold induction at 10 µM (Renilla_ERa; [11])	fold induction at 10 µM (Renilla_ERa; [12])	further results
–	–	–	–	–	–	–	5.8	1.6	0.7	1.5	4.2	0.5	CCOC(=O)c1cnc2c(C)cc(C)cc2c1NCCCN1CCCCC1 [Compound Z10]	–	–	–	–	–	–	–	–
–	–	–	–	–	–	–	3.5	1.2	0.5	1.6	2.1	0.6	CCOC(=O)c1cnc2c(C)cc(C)cc2c1NCCCN1CCCCC1 [Compound Z11]	–	–	–	–	–	–	–	–
–	–	–	–	–	–	–	3.9	1.8	0.4	1.3	2.4	0.4	CCOC(=O)c1cnc2c(C)cc(C)cc2c1NCCCN1CCCCC1 [Compound Z12]	–	–	–	–	–	–	–	–
–	–	–	–	–	–	–	1.5	6.5	0.6	9.5	1.7	2.9	CCOC(=O)c1cnc2c(C)cc(C)cc2c1NCCCN1CCCCC1 [Compound Z17]	–	–	–	–	–	–	–	–
–	–	–	–	–	–	–	1.3	6.3	0.7	12.7	1.9	0.7	CCOC(=O)c1cnc2c(C)cc(C)cc2c1NCCCN1CCCCC1 [Compound Z19]	–	–	–	–	–	–	–	–
